Entries after “also recorded” stand apart in the source; their conditions may differ.
Columns and labels:
Type I collagen [1] = biological target: T1, Type I collagen (Bos taurus, UniProt P02453+P02465); test: ELISA saturation binding to collagen; design: species or system bovine
[2] = Circular dichroism spectroscopy; format: physicochemical; details: NaCl, MgCl2, CaCl2; 10 μM peptide
Type I collagen [3] = biological target: T1, Type I collagen; test: Inhibition of cCBD-LL37 binding to collagen by cCBD; design: species or system bovine; details: 500 nM cCBD-LL37 with 0–500 nM cCBD, 1 h room temperature; n = 4

T1 sequence (P02453 162-1217 limits assumed): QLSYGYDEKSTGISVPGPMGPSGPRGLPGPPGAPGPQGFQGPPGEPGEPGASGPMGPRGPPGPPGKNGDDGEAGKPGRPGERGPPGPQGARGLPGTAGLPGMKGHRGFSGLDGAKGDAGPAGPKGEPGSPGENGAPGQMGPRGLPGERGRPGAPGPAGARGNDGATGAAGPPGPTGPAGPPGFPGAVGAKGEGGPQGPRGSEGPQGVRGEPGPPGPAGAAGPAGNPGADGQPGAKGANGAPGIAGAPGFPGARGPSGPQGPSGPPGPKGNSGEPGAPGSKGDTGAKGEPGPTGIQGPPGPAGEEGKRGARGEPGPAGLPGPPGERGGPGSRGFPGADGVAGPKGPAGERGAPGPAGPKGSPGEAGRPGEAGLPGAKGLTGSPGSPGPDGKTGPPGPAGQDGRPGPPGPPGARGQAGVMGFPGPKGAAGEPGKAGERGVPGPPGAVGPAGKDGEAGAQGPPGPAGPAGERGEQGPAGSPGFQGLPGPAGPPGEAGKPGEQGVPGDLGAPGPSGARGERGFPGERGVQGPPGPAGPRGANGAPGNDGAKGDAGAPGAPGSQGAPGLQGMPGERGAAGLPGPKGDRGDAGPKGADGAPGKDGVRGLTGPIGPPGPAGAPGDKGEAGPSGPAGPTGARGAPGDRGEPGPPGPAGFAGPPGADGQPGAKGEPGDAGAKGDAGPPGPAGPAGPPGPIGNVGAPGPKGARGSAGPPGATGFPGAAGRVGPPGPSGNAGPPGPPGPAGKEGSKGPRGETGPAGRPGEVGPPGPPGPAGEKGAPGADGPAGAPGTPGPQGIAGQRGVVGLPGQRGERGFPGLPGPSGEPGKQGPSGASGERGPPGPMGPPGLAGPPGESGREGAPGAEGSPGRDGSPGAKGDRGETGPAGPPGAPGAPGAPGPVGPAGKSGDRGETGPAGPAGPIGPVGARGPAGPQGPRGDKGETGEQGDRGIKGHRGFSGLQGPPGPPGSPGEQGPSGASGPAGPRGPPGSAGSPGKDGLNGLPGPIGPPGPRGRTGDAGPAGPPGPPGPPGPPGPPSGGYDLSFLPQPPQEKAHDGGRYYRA
T1 sequence (P02465 80-1117 limits assumed): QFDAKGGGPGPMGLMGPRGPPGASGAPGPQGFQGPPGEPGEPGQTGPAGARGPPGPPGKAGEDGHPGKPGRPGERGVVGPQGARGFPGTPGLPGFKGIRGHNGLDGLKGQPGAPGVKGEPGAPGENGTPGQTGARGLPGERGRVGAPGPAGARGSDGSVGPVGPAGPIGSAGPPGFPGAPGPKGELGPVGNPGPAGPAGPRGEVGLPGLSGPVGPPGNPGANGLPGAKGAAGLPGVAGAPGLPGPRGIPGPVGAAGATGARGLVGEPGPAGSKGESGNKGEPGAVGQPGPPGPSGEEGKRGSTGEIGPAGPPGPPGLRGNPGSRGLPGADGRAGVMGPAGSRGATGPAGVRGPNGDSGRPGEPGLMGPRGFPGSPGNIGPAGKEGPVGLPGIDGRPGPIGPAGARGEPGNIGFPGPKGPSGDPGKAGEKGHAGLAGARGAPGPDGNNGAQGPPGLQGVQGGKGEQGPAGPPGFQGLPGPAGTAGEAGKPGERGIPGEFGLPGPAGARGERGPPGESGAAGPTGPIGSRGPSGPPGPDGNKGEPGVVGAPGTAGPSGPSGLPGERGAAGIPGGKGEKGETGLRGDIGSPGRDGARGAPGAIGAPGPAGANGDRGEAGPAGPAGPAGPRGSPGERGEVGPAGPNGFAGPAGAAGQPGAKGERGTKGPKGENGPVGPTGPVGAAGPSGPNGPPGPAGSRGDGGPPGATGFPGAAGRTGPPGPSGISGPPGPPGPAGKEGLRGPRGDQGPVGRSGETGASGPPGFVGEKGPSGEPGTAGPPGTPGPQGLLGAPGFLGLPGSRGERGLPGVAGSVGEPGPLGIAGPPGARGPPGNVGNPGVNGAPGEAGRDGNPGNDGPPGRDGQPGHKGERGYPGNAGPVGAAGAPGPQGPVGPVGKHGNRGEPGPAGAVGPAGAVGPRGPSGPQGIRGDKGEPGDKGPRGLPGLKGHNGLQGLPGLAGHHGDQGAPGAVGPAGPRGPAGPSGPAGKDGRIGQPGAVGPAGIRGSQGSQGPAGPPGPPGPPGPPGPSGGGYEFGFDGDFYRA

## CC[C@H](C)[C@H](NC(=O)[C@H](CCCCN)NC(=O)[C@H](CCC(=O)O)NC(=O)[C@H](CCCCN)NC(=O)[C@H](CO)NC(=O)[C@H](CCCCN)NC(=O)[C@H](CCCNC(=N)N)NC(=O)[C@H](Cc1ccccc1)NC(=O)[C@H](Cc1ccccc1)NC(=O)[C@H](CC(=O)O)NC(=O)CNC(=O)[C@H](CC(C)C)NC(=O)[C@@H](N)CC(C)C)C(=O)NCC(=O)N[C@@H](CCCCN)C(=O)N[C@@H](CCC(=O)O)C(=O)N[C@@H](Cc1ccccc1)C(=O)N[C@@H](CCCCN)C(=O)N[C@@H](CCCNC(=N)N)C(=O)N[C@H](C(=O)N[C@H](C(=O)N[C@@H](CCC(N)=O)C(=O)N[C@@H](CCCNC(=N)N)C(=O)N[C@H](C(=O)N[C@@H](CCCCN)C(=O)N[C@@H](CC(=O)O)C(=O)N[C@@H](Cc1ccccc1)C(=O)N[C@@H](CC(C)C)C(=O)N[C@@H](CCCNC(=N)N)C(=O)N[C@@H](CC(N)=O)C(=O)N[C@@H](CC(C)C)C(=O)N[C@H](C(=O)N1CCC[C@H]1C(=O)N[C@@H](CCCNC(=N)N)C(=O)N[C@H](C(=O)N[C@@H](CCC(=O)O)C(=O)N[C@@H](CO)C(=O)O)[C@@H](C)O)C(C)C)[C@@H](C)CC)C(C)C)[C@@H](C)CC [LL37, reference compound]
Type I collagen [1]
  Kd: 80 nM

## CC[C@H](C)[C@H](NC(=O)[C@H](CCCCN)NC(=O)[C@H](CCC(=O)O)NC(=O)[C@H](CCCCN)NC(=O)[C@H](CO)NC(=O)[C@H](CCCCN)NC(=O)[C@H](CCCNC(=N)N)NC(=O)[C@H](Cc1ccccc1)NC(=O)[C@H](Cc1ccccc1)NC(=O)[C@H](CC(=O)O)NC(=O)CNC(=O)[C@H](CC(C)C)NC(=O)[C@@H](N)CC(C)C)C(=O)NCC(=O)N[C@@H](CCCCN)C(=O)N[C@@H](CCC(=O)O)C(=O)N[C@@H](Cc1ccccc1)C(=O)N[C@@H](CCCCN)C(=O)N[C@@H](CCCNC(=N)N)C(=O)N[C@H](C(=O)N[C@H](C(=O)N[C@@H](CCC(N)=O)C(=O)N[C@@H](CCCNC(=N)N)C(=O)N[C@H](C(=O)N[C@@H](CCCCN)C(=O)N[C@@H](CC(=O)O)C(=O)N[C@@H](Cc1ccccc1)C(=O)N[C@@H](CC(C)C)C(=O)N[C@@H](CCCNC(=N)N)C(=O)N[C@@H](CC(N)=O)C(=O)N[C@@H](CC(C)C)C(=O)N[C@H](C(=O)N1CCC[C@H]1C(=O)N[C@@H](CCCNC(=N)N)C(=O)N[C@H](C(=O)N[C@@H](CCC(=O)O)C(=O)N[C@@H](CO)C(=O)N[C@@H](CC(=O)O)C(=O)N[C@@H](Cc1ccc(O)cc1)C(=O)N[C@@H](CCCCN)C(=O)N[C@@H](CC(=O)O)C(=O)N[C@@H](CC(=O)O)C(=O)N[C@@H](CC(=O)O)C(=O)N[C@@H](CC(=O)O)C(=O)N[C@@H](CCCCN)C(=O)N[C@H](C(=O)N[C@@H](CCCCN)C(=O)N[C@@H](CCCCN)C(=O)N[C@H](C(=O)N[C@@H](CC(C)C)C(=O)N[C@@H](CCCNC(=N)N)C(=O)N[C@H](C(=O)O)[C@@H](C)O)[C@@H](C)O)[C@@H](C)O)[C@@H](C)O)C(C)C)[C@@H](C)CC)C(C)C)[C@@H](C)CC [cCBD-LL37]
Type I collagen [1]
  Kd: 49 nM
[2]
  structural stability at varying ionic strengths compared with LL37: stronger structural stability at varying ionic strengths when compared with LL37

## DYKDDDDKTKKTLRT [cCBD]
Type I collagen [3]
  inhibition of cCBD-LL37 binding to collagen by excess cCBD: significantly (*p < 0.05) inhibited cCBD-LL37 binding to collagen; also recorded: inhibited cCBD-LL37 binding to collagen but did not completely abrogate the binding
